Source: the NIST ThermoML archive (doi:10.1021/je050092d)

Experiment: molar heat capacity at constant pressure
Settings: 101.33 kPa, Vacuum adiabatic calorimetry

CCCCCCCCCCCCCCCCCC(=O)OCC(COC(=O)CCCCCCCCCCCCCCCCC)OC(=O)CCCCCCCCCCCCCCCCC [glycerol trioctadecanoate]
Settings	molar heat capacity at constant pressure [J/K/mol]
9.6 K, Crystal	10.7
9.65 K, Crystal	8.023
9.71 K, Crystal	12.48
10.85 K, Crystal	22.29
11.58 K, Crystal	22.29
12.51 K, Crystal	26.74
13.59 K, Crystal	30.31
13.96 K, Crystal	32.98
15.41 K, Crystal	39.23
15.56 K, Crystal	43.68
17.3 K, Crystal	62.4
17.41 K, Crystal	50.81
19.33 K, Crystal	69.54
19.45 K, Crystal	65.97
21.54 K, Crystal	79.34
21.58 K, Crystal	82.02
23.71 K, Crystal	98.06
23.86 K, Crystal	100.74
25.95 K, Crystal	115
26.19 K, Crystal	116.78
28.25 K, Crystal	135.5
28.56 K, Crystal	137.29
30.62 K, Crystal	156.9
30.93 K, Crystal	149.77
30.99 K, Crystal	158.68
33.29 K, Crystal	184.54
35.42 K, Crystal	205.04
37.51 K, Crystal	215.74
39.73 K, Crystal	224.65
41.97 K, Crystal	239.81
44.25 K, Crystal	262.99
46.55 K, Crystal	273.68
48.96 K, Crystal	294.19
51.41 K, Crystal	312.02
53.88 K, Crystal	332.52
56.39 K, Crystal	354.81
58.93 K, Crystal	372.64
61.51 K, Crystal	394.03
64.13 K, Crystal	415.43
66.78 K, Crystal	434.15
69.45 K, Crystal	451.98
72.14 K, Crystal	468.03
74.85 K, Crystal	484.07
77.59 K, Crystal	501.01
80.34 K, Crystal	514.38
83.1 K, Crystal	530.43
85.71 K, Crystal	540.24
85.88 K, Crystal	545.59
88.61 K, Crystal	554.5
88.67 K, Crystal	558.07
91.44 K, Crystal	566.09
91.47 K, Crystal	572.33
94.27 K, Crystal	578.57
97.11 K, Crystal	585.7
99.95 K, Crystal	597.29
102.8 K, Crystal	610.66
105.65 K, Crystal	612.45
108.5 K, Crystal	616.01
111.36 K, Crystal	627.6
114.22 K, Crystal	640.08
117.09 K, Crystal	651.67
119.95 K, Crystal	661.48
122.82 K, Crystal	671.28
125.7 K, Crystal	680.2
128.58 K, Crystal	690.9
131.46 K, Crystal	729.23
134.35 K, Crystal	729.23
137.23 K, Crystal	716.75
140.13 K, Crystal	728.34
143.02 K, Crystal	739.93
145.92 K, Crystal	759.54
148.83 K, Crystal	769.35
151.73 K, Crystal	778.26
154.64 K, Crystal	790.74
157.55 K, Crystal	793.42
160.46 K, Crystal	818.38
163.37 K, Crystal	826.4
166.29 K, Crystal	837.99
169.2 K, Crystal	848.69
172.12 K, Crystal	856.71
175.04 K, Crystal	870.08
177.95 K, Crystal	878.11
178.91 K, Metastable crystal	900.39
180.87 K, Crystal	890.59
181.6 K, Metastable crystal	918.22
183.79 K, Crystal	901.29
184.26 K, Metastable crystal	942.29
186.7 K, Crystal	921.79
186.88 K, Metastable crystal	974.39
189.48 K, Metastable crystal	985.98
189.62 K, Crystal	938.73
192.06 K, Metastable crystal	995.78
192.54 K, Crystal	957.45
194.63 K, Metastable crystal	998.46
195.45 K, Crystal	972.6
197.18 K, Metastable crystal	1005.6
198.37 K, Crystal	976.17
199.71 K, Metastable crystal	1029.7
201.29 K, Crystal	997.57
202.23 K, Metastable crystal	1053.7
204.21 K, Crystal	1008.3
204.74 K, Metastable crystal	1074.2
207.13 K, Crystal	1014.5
207.23 K, Metastable crystal	1089.4
209.71 K, Metastable crystal	1083.1
210.05 K, Crystal	1023.4
212.17 K, Metastable crystal	1091.2
212.96 K, Crystal	1029.7
